# According to patent US20060069132A1, “Azolecarboxamide herbicides” (priority 2004, published 2006):
# Key:
# barnyardgrass [1] = assay: Test B pre-/postemergence herbicide test; type: in vivo, Echinochloa crus-galli
# How it was run: (§1)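 Plants compared with untreated controls 13–15 days post-treatment and given a visual 0–100 injury score. Applications: preemergence to seeds; postemergence at 1- to 4-leaf (2–18 cm); paddy species flooded, 2-leaf stage. Vehicle non-phytotoxic, surfactant included.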
# Surinam grass = assay: Test B pre-/postemergence herbicide test; type: in vivo, Urochloa decumbens
# How it was run: (§2)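 Greenhouse pot assay with simultaneous preemergence (treated seed) and postemergence (2–18 cm seedlings) applications of surfactant-containing, non-phytotoxic solvent formulations. Response scored visually 13–15 days later on a 0–100 scale, 100 meaning complete control.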
# cocklebur = assay: Test B pre-/postemergence herbicide test; type: in vivo, Xanthium strumarium
# How it was run: as §1
# corn = assay: Test B pre-/postemergence herbicide test; type: in vivo, Zea mays
# How it was run: as §2
# large crabgrass = assay: Test B pre-/postemergence herbicide test; type: in vivo, Digitaria sanguinalis
# How it was run: as §2
# giant foxtail = assay: Test B pre-/postemergence herbicide test; type: in vivo, Setaria faberi
# How it was run: as §2
# lambsquarters = assay: Test B pre-/postemergence herbicide test; type: in vivo, Chenopodium album
# How it was run: as §2
# morningglory = assay: Test B pre-/postemergence herbicide test; type: in vivo, Ipomoea coccinea
# How it was run: as §1
# pigweed = assay: Test B pre-/postemergence herbicide test; type: in vivo, Amaranthus retroflexus
# How it was run: as §2
# rice [2] = assay: Test B pre-/postemergence herbicide test; type: in vivo, Oryza sativa; conditions: preemergence
# How it was run: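 Species tested were Echinochloa crus-galli, Ipomoea coccinea, Xanthium strumarium and Oryza sativa, treated both before emergence and at the 1- to 4-leaf stage; rice and barnyardgrass were also tested under flooding at 2 leaves. Greenhouse incubation lasted 13–15 days before visual 0–100 scoring.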
# velvetleaf = assay: Test B pre-/postemergence herbicide test; type: in vivo, Abutilon theophrasti
# How it was run: as §2
# blackgrass = assay: Test B postemergence herbicide test; type: in vivo, Alopecurus myosuroides
# How it was run: (§3)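 Formulated test chemicals went onto postemergence plants measuring 2 to 18 cm, at one to four leaves. For the paddy assay, species had reached two leaves. Scoring took place 13–15 days later by eye, relative to untreated plants, using 0 for no effect up to 100 for full control.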
# wheat = assay: Test B postemergence herbicide test; type: in vivo, Triticum aestivum; parameters: key to Wheat plant response rating: 0 = no effect, 100 = complete control
# How it was run: (§4)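 After treating 2-leaf paddy plants or 2–18 cm postemergence plants (1 to 4 leaves) with formulated chemical, researchers kept them in a greenhouse for 13–15 days. Effects were judged visually versus controls: 0 indicates none, 100 total control.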
# wild oat = assay: Test B postemergence herbicide test; type: in vivo, Avena fatua
# How it was run: as §4
# rice [3] = assay: Test B flooded paddy test; type: in vivo, Oryza sativa; conditions: 1000 g ai/ha, scale 0 to 100 (0 no effect, 100 complete control)
# How it was run: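 Greenhouse test; postemergence application to plants at 1–4 leaves (2–18 cm); paddy species at 2 leaves; evaluated visually vs controls at 13–15 days; scale 0–100 (100 = complete control).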
# [4] = test system: small flower umbrella sedge; assay: Test B flooded paddy test; type: in vivo, Cyperus difformis; conditions: 1000 g ai/ha, scale 0 to 100 (0 no effect, 100 complete control)
# How it was run: as §3
# ducksalad [5] = assay: Test B flooded paddy test; type: in vivo, Heteranthera limosa; conditions: 1000 g ai/ha, scale 0 to 100 (0 no effect, 100 complete control)
# How it was run: as §3
# barnyardgrass [6] = assay: Test B flooded paddy test; type: in vivo, Echinochloa crus-galli; conditions: 1000 g ai/ha, scale 0 to 100 (0 no effect, 100 complete control)
# How it was run: as §3
# rice [7] = assay: Test C flooded paddy test; type: in vivo, Oryza sativa; conditions: for Plant response rating, Rice: visual rating after 12 to 14 days
# How it was run: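 Injury scored visually against controls on a 0 (no effect) to 100 (complete control) scale, 12 to 14 days after treatment in greenhouse. Flooded paddy plants treated at 2-leaf stage; postemergence plants at 1- to 4-leaf stage, 2 to 18 cm tall.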
# [8] = test system: smallflower umbrella sedge; assay: Test C flooded paddy test; type: in vivo, Cyperus difformis; conditions: for Plant response rating, Sedge, Umbrella: visual rating after 12 to 14 days
# ducksalad [9] = assay: Test C flooded paddy test; type: in vivo, Heteranthera limosa; conditions: for Plant response rating, Ducksalad: visual rating after 12 to 14 days
# barnyardgrass [10] = assay: Test C flooded paddy test; type: in vivo, Echinochloa crus-galli; conditions: for Plant response rating, Barnyardgrass: visual rating after 12 to 14 days
# How it was run: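 Weeds and wheat were sprayed after emergence, at a height of 2 to 18 cm (1–4 leaves), and paddy barnyardgrass was flooded and treated at two leaves. Assessment took place 12–14 days later in the greenhouse on a 0-to-100 visual control scale. A dash means no result was obtained.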
# [11] = 125 g ai/ha; 0 = no effect, 100 = complete control; preemergence
# [12] = 125 g ai/ha; visual rating, scale 0 (no effect) to 100 (complete control); postemergence
# [13] = 500 g ai/ha; visual rating, 0 = no effect, 100 = complete control; preemergence
# [14] = postemergence, 500 g ai/ha; scale 0 to 100, 0 is no effect, 100 is complete control
# [15] = 125 g ai/ha, scale 0 to 100 (0 no effect, 100 complete control)
# [16] = 250 g ai/ha, scale of 0 to 100, 0 is no effect, 100 is complete control
# [17] = 500 g ai/ha, scale 0 to 100 (0 no effect, 100 complete control)
# [18] = 62 g ai/ha, scale 0 to 100 (0 no effect, 100 complete control)
# [19] = postemergence, 125 g ai/ha; visual rating, scale 0 (no effect) to 100 (complete control)
# [20] = postemergence; 31 g ai/ha; scale 0 to 100
# [21] = preemergence, 125 g ai/ha; 0 to 100 scale, 0 is no effect, 100 is complete control
# [22] = 125 g ai/ha, scale of 0 to 100, 0 is no effect, 100 is complete control
# [23] = 250 g ai/ha, scale 0 to 100 (0 no effect, 100 complete control)
structure (smiles),measurement,setting,value
CCN(CC)C(=O)c1ccc(F)c(NC(=O)C2CC(C(C)(C)C)=NN2CC)c1 (racemic) [Compound 308],Barnyardgrass plant response rating (0 to 100 scale),barnyardgrass [1]; [11],20
same,Barnyardgrass plant response rating,barnyardgrass [1]; [12],0
same,"Plant response rating, Barnyardgrass",barnyardgrass [1]; [13],80
same,Barnyardgrass plant response rating,barnyardgrass [1]; [14],10
same,Surinam Grass plant response rating (0 to 100 scale),Surinam grass; [11],20
same,Surinam Grass plant response rating,Surinam grass; [12],10
same,"Plant response rating, Surinam Grass",Surinam grass; [13],60
same,Surinam Grass plant response rating,Surinam grass; [14],20
same,Cocklebur plant response rating (0 to 100 scale),cocklebur; [11],0
same,Cocklebur plant response rating,cocklebur; [12],0
same,"Plant response rating, Cocklebur",cocklebur; [13],0
same,Cocklebur plant response rating,cocklebur; [14],40
same,Corn plant response rating (0 to 100 scale),corn; [11],20
same,Corn plant response rating,corn; [12],0
same,"Plant response rating, Corn",corn; [13],70
same,Corn plant response rating,corn; [14],10
same,"Crabgrass, Large plant response rating (0 to 100 scale)",large crabgrass; [11],40
same,"Crabgrass, Large plant response rating",large crabgrass; [12],0
same,"Plant response rating, Crabgrass, Large",large crabgrass; [13],70
same,"Crabgrass, Large plant response rating",large crabgrass; [14],10
same,"Foxtail, Giant plant response rating (0 to 100 scale)",giant foxtail; [11],10
same,"Foxtail, Giant plant response rating",giant foxtail; [12],10
same,"Plant response rating, Foxtail, Giant",giant foxtail; [13],90
same,"Foxtail, Giant plant response rating",giant foxtail; [14],20
same,Lambsquarters plant response rating (0 to 100 scale),lambsquarters; [11],100
same,Lambsquarters plant response rating,lambsquarters; [12],50
same,"Plant response rating, Lambsquarters",lambsquarters; [13],100
same,Lambsquarters plant response rating,lambsquarters; [14],60
same,Morningglory plant response rating (0 to 100 scale),morningglory; [11],0
same,Morningglory plant response rating,morningglory; [12],0
same,"Plant response rating, Morningglory",morningglory; [13],10
same,Morningglory plant response rating,morningglory; [14],20
same,Pigweed plant response rating (0 to 100 scale),pigweed; [11],80
same,Pigweed plant response rating,pigweed; [12],60
same,"Plant response rating, Pigweed",pigweed; [13],100
same,Pigweed plant response rating,pigweed; [14],70
same,Rice plant response rating (0 to 100 scale),"rice [2]; 125 g ai/ha, 0 = no effect, 100 = complete control",20
same,"Plant response rating, Rice","rice [2]; 500 g ai/ha, visual rating, 0 = no effect, 100 = complete control",50
same,Velvetleaf plant response rating,velvetleaf; [12],10
same,"Plant response rating, Velvetleaf",velvetleaf; [13],100
same,Velvetleaf plant response rating,velvetleaf; [14],20
same,Blackgrass plant response rating,blackgrass; [12],10
same,Blackgrass plant response rating,blackgrass; [14],30
same,Wheat plant response rating,wheat; [12],10
same,Wheat plant response rating,wheat; [14],20
same,"Oat, Wild plant response rating",wild oat; [12],10
same,"Oat, Wild plant response rating",wild oat; [14],20
same,Rice plant response rating,rice [3],70
same,"Sedge, Umbrella plant response rating",[4],90
same,Ducksalad plant response rating,ducksalad [5],90
same,Barnyardgrass plant response rating,barnyardgrass [6],90
same,Rice plant response rating,"rice [7]; 62 g ai/ha, scale 0 to 100",15
same,Rice plant response rating,rice [7]; [15],25
same,Rice plant response rating,rice [7]; [16],65
same,"Plant response rating, Rice",rice [7]; [17],70
same,"Sedge, Umbrella plant response rating","[8]; 62 g ai/ha, scale 0 to 100",0
same,"Sedge, Umbrella plant response rating",[8]; [15],25
same,"Sedge, Umbrella plant response rating",[8]; [16],70
same,"Plant response rating, Sedge, Umbrella",[8]; [17],80
same,Ducksalad plant response rating,"ducksalad [9]; 62 g ai/ha, scale 0 to 100",0
same,Ducksalad plant response rating,ducksalad [9]; [15],0
same,Ducksalad plant response rating,ducksalad [9]; [16],15
same,"Plant response rating, Ducksalad",ducksalad [9]; [17],75
same,Barnyardgrass plant response rating,barnyardgrass [10]; [18],0
same,Barnyardgrass plant response rating,barnyardgrass [10]; [15],0
same,Barnyardgrass plant response rating,barnyardgrass [10]; [16],25
same,"Plant response rating, Barnyardgrass",barnyardgrass [10]; [17],65
CCn1nc(C(C)(C)C)cc1C(=O)Nc1cccc(C(=O)N(C)C)c1 [Compound 49],Barnyardgrass plant response rating,barnyardgrass [1]; [19],30
same,Barnyardgrass plant response rating,barnyardgrass [1]; [20],10
same,"Plant response rating, Barnyardgrass",barnyardgrass [1]; [21],30
same,Surinam Grass plant response rating,Surinam grass; [19],10
same,Surinam Grass plant response rating,Surinam grass; [20],10
same,"Plant response rating, Surinam Grass",Surinam grass; [21],10
same,Cocklebur plant response rating,cocklebur; [19],20
same,Cocklebur plant response rating,cocklebur; [20],10
same,"Plant response rating, Cocklebur",cocklebur; [21],0
same,Corn plant response rating,corn; [19],20
same,Corn plant response rating,corn; [20],10
same,"Plant response rating, Corn",corn; [21],0
same,"Crabgrass, Large plant response rating",large crabgrass; [19],10
same,"Crabgrass, Large plant response rating",large crabgrass; [20],10
same,"Plant response rating, Crabgrass, Large",large crabgrass; [21],20
same,"Foxtail, Giant plant response rating",giant foxtail; [19],10
same,"Foxtail, Giant plant response rating",giant foxtail; [20],0
same,"Plant response rating, Foxtail, Giant",giant foxtail; [21],0
same,Lambsquarters plant response rating,lambsquarters; [19],50
same,Lambsquarters plant response rating,lambsquarters; [20],20
same,"Plant response rating, Lambsquarters",lambsquarters; [21],70
same,Morningglory plant response rating,morningglory; [19],0
same,Morningglory plant response rating,morningglory; [20],0
same,"Plant response rating, Morningglory",morningglory; [21],0
same,Pigweed plant response rating,pigweed; [19],30
same,Pigweed plant response rating,pigweed; [20],10
same,"Plant response rating, Pigweed",pigweed; [21],90
same,"Plant response rating, Rice","rice [2]; 125 g ai/ha, 0 to 100 scale, 0 is no effect, 100 is complete control",40
same,Velvetleaf plant response rating,velvetleaf; [19],30
same,Velvetleaf plant response rating,velvetleaf; [20],10
same,"Plant response rating, Velvetleaf",velvetleaf; [21],0
same,Blackgrass plant response rating,blackgrass; [19],0
same,Blackgrass plant response rating,blackgrass; [20],0
same,Wheat plant response rating,wheat; [19],0
same,Wheat plant response rating,wheat; [20],0
same,"Oat, Wild plant response rating",wild oat; [19],10
same,"Oat, Wild plant response rating",wild oat; [20],0
same,Rice plant response rating,"rice [3]; visual rating, 13 to 15 days",30
same,"Sedge, Umbrella plant response rating","[4]; visual rating, 13 to 15 days",80
same,Ducksalad plant response rating,"ducksalad [5]; visual rating, 13 to 15 days",80
same,Barnyardgrass plant response rating,"barnyardgrass [6]; visual rating, 13 to 15 days",70
same,Rice plant response rating,rice [7]; [18],15
same,Rice plant response rating,rice [7]; [22],25
same,"Plant response rating, Rice",rice [7]; [23],70
same,"Plant response rating, Rice",rice [7]; [17],90
same,"Sedge, Umbrella plant response rating",[8]; [18],45
same,"Sedge, Umbrella plant response rating",[8]; [22],45
same,"Plant response rating, Sedge, Umbrella",[8]; [23],80
same,"Plant response rating, Sedge, Umbrella",[8]; [17],80
same,Ducksalad plant response rating,ducksalad [9]; [18],0
same,Ducksalad plant response rating,ducksalad [9]; [22],50
same,"Plant response rating, Ducksalad",ducksalad [9]; [23],80
same,"Plant response rating, Ducksalad",ducksalad [9]; [17],80
same,Barnyardgrass plant response rating,barnyardgrass [10]; [18],45
same,Barnyardgrass plant response rating,barnyardgrass [10]; [22],60
same,"Plant response rating, Barnyardgrass",barnyardgrass [10]; [23],70
same,"Plant response rating, Barnyardgrass",barnyardgrass [10]; [17],80
